This is an account of results in patent US5128493A, “Platinum complexes” (Nippon Kayaku Kabushiki Kaisha, priority 1987, dated 1992).

For data set [1] the following is noted: cis-Platin, prior art description; cited from earlier work.
In the next data set the test system is Mouse Leukemia L1210. Description: Antitumor activity against mouse leukemia L1210 in vivo. Particulars: i.p. once a day for 5 consecutive days; for Opt. dose: L1210, daily amount giving the max (T/C); for max (T/C): L1210, mean survival time, at optimum dose; for LD50: L1210-bearing female CDF1 mice. The arrangement: species or system mouse (female CDF1). As to the method:
Test of Antitumor Activity Against Mouse Leukemia L1210 in vivo
1×10^5 mouse leukemia L1210 cells were inoculated into the abdominal cavities of 6-week-old female CDF1 mice. From the next day, a compound was administered to them intraperitoneally once a day for 5 consecutive days. Mice of a compound-non-treated group (control group) were administered with physiological saline solution in the same manner. The mean survival time of the compound-treated group and the control group were measured and T/C was calculated from the equation (1): [formula]
In Table 4, max (T/C) means the maximum value of T/C and optimum dose (Opt. dose) means a daily administration amount giving the max (T/C), namely, an optimum daily administration amount.

In data set [2] the test system is mouse Lewis lung carcinoma (LL) cells. Description: Growth inhibitory activity against cultured tumor cells, LL. In kind it is cell-based. Particulars: Tumor cell LL; RPMI 1640, 10% fetal calf serum, 100 μg/ml Kanamycin. As to the method:
(§1) Test of Growth Inhibitory Activity Against Various Kinds of Cultured Tumor Cells
(§2) Mouse leukemia L1210 cells were cultured in a RPMI 1640 medium containing 10% of fetal calf serum and mouse Lewis lung carcinoma (LL) cells were cultured in a RPMI 1640 medium containing 10% fetal calf serum and 100 μg/ml of Kanamycin.

Data set [3] deals with Mouse leukemia L1210 cells. Description: Growth inhibitory activity against cultured tumor cells, L1210. The conditions noted are these: Tumor cell L1210; RPMI 1640, 10% fetal calf serum. In kind it is cell-based. As to the method: as §1, §2
Data set [4] relates to Mouse Lewis Lung Carcinoma. Description: Antitumor activity against mouse Lewis lung carcinoma in vivo. Particulars: i.p. once a day for 5 consecutive days; for max (T/C) / Opt. dose: Lewis lung carcinoma; for max (T/C): median survival time, at optimum dose; for Opt. dose: daily amount giving the max (T/C). On the set-up: species or system mouse (male BDF1). As to the method:
Test of Antitumor Activity Against Mouse Lewis Lung Carcinoma
1×10^6 mouse Lewis lung carcinoma cells were inoculated into the abdominal cavities of 6-week-old male BDF1 mice. From the next day, a compound was administered to them intraperitoneally once a day for 5 consecutive days. Mice of compound-non-treated group (control group) were administered with physiological saline solution in the same manner. From the median survival time of the compoundtreated group and the control group, T/C was calculated according to the following equation (2): [formula]
In Table 5, max (T/C), and Opt. dose and LD50 mean the same ones in Table 4, respectively.

The conditions of data set [5]: mouse, in vivo, ip.
Description: A compound was singly administered to 6-week-old male CDF1 mice intraperitoneally.
Data set [6] relates to cis-Platin resistant mouse leukemia P388 cells. Description: Growth inhibitory activity against cis-Platin resistant tumor cells, P388. In kind it is cell-based. The conditions noted are these: Tumor cell P388; ratio of IC50 for cis-Platin resistant cells to IC50 for non-resistant cells. An excerpt:
(§3) 1×10^5 mouse leukemia L1210 cells or 1×10^5 mouse leukemia P388 cells were inoculated into the abdominal cavities of CDF1 female mice. […] After 5 days, their tumor cells were inoculated to the abdominal cavities of other CDF1 female mice, and the same treatment was applied.

Data set [7] has as its system cis-Platin resistant mouse leukemia L1210 cells. Description: Growth inhibitory activity against cis-Platin resistant tumor cells, L1210. Particulars: Tumor cell L1210; ratio of IC50 for cis-Platin resistant cells to IC50 for non-resistant cells. In kind it is cell-based.
Description: as §3

Some results are limits rather than exact numbers.

For `N.N.[Cl][Pt][Cl]` [cis-Platin, cis-dichlorodiammineplatinum, reference compound], the “dissolving in water (in words)” value in data set [1] is recorded as “dissolving in water slowly”. This compound also displayed an Opt. dose with Mouse Leukemia L1210 of 4 mg/kg.

As usually defined, the IC50 is the concentration that gives 50% inhibition. “cis-4-Oxacyclohexane-1,1-dicarboxylato-2,3-dimethyl-1,4-butanediamine Platinum [Compound No. 6]” had a Solubility in water above 20 mg/mL. For the same compound, in data set [2], the IC50 came to 1.06 µg/mL. The IC50 in data set [3] is 0.11 µg/mL.

Broadly, the LD50 is the dose at which mortality reaches 50%. Read a low LD50 as a more toxic substance. In the case of “cis-Cyclobutane-1,1-dicarboxylato-2,3-dimethyl-1,4-butanediamine Platinum [Compound No. 4]”, the IC50 in data set [2] is 2.10 µg/mL; in data set [3], 1.01 µg/mL. For the same compound, the “max (T/C)” value was found to be 144 in data set [4] and 328 with Mouse Leukemia L1210. In data set [4] (Lewis lung carcinoma-bearing male BDF1 mice), this compound had an LD50 of 48.0 mg/kg. In addition, the Opt. dose (in data set [4]; with Mouse Leukemia L1210) was 32.0 mg/kg throughout.

Consider “cis-Dichloro-2,3-dimethyl-1,4-butanediamine Platinum [Compound No. 1]”, for which the IC50 in [2] was determined as 0.43 µg/mL. Further, the IC50 in [3] was 0.04 µg/mL. The “Solubility in physiological saline solution” value (physiological saline) is above 2 mg/ml. The Body weight ratio in data set [5] is recorded as 0.79. Further, in the data set on Mouse Leukemia L1210, the “max (T/C)” value stood at 323, the LD50 was 3.0 mg/kg and the Opt. dose is given as 2.0 mg/kg.

“cis-Diethylmalonato-2,3-dimethyl-1,4-butanediamine Platinum [Compound No. 8]” yielded a Solubility in water above 15 mg/mL.

The compound “cis-Dimethylmalonato-2,3-dimethyl-1,4-butanediamine Platinum [Compound No. 5]” came in with a Solubility in water above 20 mg/mL. For the same compound, the IC50 in data set [2] is 1.06 µg/mL. The IC50 in data set [3] is 0.40 µg/mL. Moreover, the “IC50 R/IC50” value in data set [6] is on record as 6.2. For the same compound, in [7], the “IC50 R/IC50” value is recorded as 1.4. Further, in [5], the Body weight ratio is 0.89. In the data set with Mouse Leukemia L1210, the “max (T/C)” value is 245 and the Opt. dose is on record as 32.0 mg/kg.

On to “cis-Ethylmalonato-2,3-dimethyl-1,4-butanediamine Platinum [Compound No. 7]”, for which the Solubility in water is above 20 mg/mL.

Take “cis-Malonato-2,3-dimethyl-1,4-butanediamine Platinum [Compound No. 3]”: the Solubility in water was above 30 mg/mL. Besides, the IC50 in data set [2] amounted to 0.95 µg/mL. Moreover, in data set [4], the “max (T/C)” value was 234 and the Opt. dose came out at 32.0 mg/kg. This compound registered an IC50 in data set [3] of 0.27 µg/mL. For the same compound, the “IC50 R/IC50” value in [6] was found to be 4.6. Further, the “IC50 R/IC50” value in data set [7] turned out to be 1.3. Moreover, the Body weight ratio in data set [5] is 1.00. In the data set on Mouse Leukemia L1210, the “max (T/C)” value stood at 400 and the Opt. dose amounted to 16.0 mg/kg.

“cis-Oxalato-2,3-dimethyl-1,4-butanediamine Platinum [Compound No. 2]” gave a Solubility in water above 3 mg/mL. For the same compound, the IC50 in data set [2] turned out to be 0.65 µg/mL. In data set [3], this compound came in with an IC50 of 0.11 µg/mL. Moreover, the Body weight ratio in data set [5] is listed as 0.77. In addition, in the data set on Mouse Leukemia L1210, the “max (T/C)” value came out at 296, the 50% lethal dose (LD50) stood at 7.2 mg/kg and the Opt. dose was 4.0 mg/kg.
